From patent US10576050B2, “Methods and compositions for treatment of cancer” (ONCONOVA THERAPEUTICS, INC., priority 2012, dated 2020)
Where “and” joins values, the source holds several entries; their conditions need not be identical. Identical values can stand only once.

What was measured:
[1] = Phase 1 oral bioavailability study of Rigosertib soft gelatin capsule in MDS patients, fasted and fed, vs IV; format: in vivo, human; settings: for AUC / Cmax / Tmax / half-life / bioavailability: human, plasma, MDS patients
Protocol: A Phase 1 study was conducted to assess oral bioavailability of a novel oral ON 01910.Na (Rigosertib) soft gelatin capsule formulation of Example 1 in MDS patients under fasted and fed conditions. This was a single-dose, three-treatment, three-period sequential design for studying the effects of food on the bioavailability of an immediate-release soft gelatin capsule formulation. The following dosing groups were tested in 12 patients: IV Dose 800 mg over 24 hours and oral dose 560 mg (2×280 mg capsules) under fasting and fed conditions. Plasma samples were collected pre-dose, over 32 hours (IV dose) or 8 hours (oral dose) after dose initiation. Rigosertib plasma levels were analyzed by a validated LC/MS/MS method. Pharmacokinetic parameters were estimated by non-compartmental analysis (WinNonlin®).

[2] = tested on: human GM-CSF-dependent erythroblastic TF-1 cell line; test: In vitro effect of ON 01910.Na on cell cycle readouts in TF-1 cells by SCNP; format: cell-based; settings: 24 hours
Protocol: FIG. 2: In vitro effect of ON 01910.Na at clinically relevant concentrations on intracellular pathways in human GM-CSF-dependent erythroblastic TF-1 cell line using SCNP was evaluated in order to monitor transitional changes in the cell cycle, with a focus on the G2-M phase and to perform dose-dependent titrations of drug using these cell cycle readouts. The reagents chosen to measure cell cycle readouts were fluorochrome-conjugated antibodies that recognize cyclin B1, p-histone H3(S28) and p-Cdk1(Y15) and 4′6′-diamino-2-phenylindole (DAPI). […] TF-1 cell DNA content measured by DAPI verified this to be the case as increases in G2/M and sub-G1 (a measure of apoptotic cell death) were simultaneously observed. […] These effects were also observed at 48 hours, although with more cell death. This assay was used to measure the pharmacodynamics activity of the drug in MDS patient samples pre- and post-treatment with ON 01910.Na.

[3] = Phase 1 dose escalation study of oral ON 01910.Na in MDS patients refractory to ESA, lenalidomide and DNA methyltransferase inhibitors
Protocol: FIG. 1: Safety and efficacy of Rigosertib (ON 01910.Na) was determined in a dose escalation study in MDS patients refractory to ESA, lenalidomide and DNA Methyltransferase inhibitors. ESA was allowed as concomitant medication. The drug dose was escalated based on a defined escalation dose scheme (70 mg, 140 mg, 280 mg, 560 mg, and 700 mg). Three patients were treated with single escalating weekly doses of oral Rigosertib to determine the oral absorption of Rigosertib.
FIG. 3: The oral absorption and tolerability of Rigosertib administered as single weekly escalating doses in a fasting state were determined in 3 patients. All 3 patients received a 70 mg single oral dose and blood samples for pharmacokinetic analyses were obtained. In the absence of drug-related grade ≥2 toxicity, single dosing was escalated weekly in each patient to 140 mg (week 2), 280 mg (week 3), 560 mg (week 4) and 700 mg (week 5).
FIG. 4: This is a waterfall plot of 8 patients broken down by French American British classification (FAB) as either Refractory Anemia with Excess Blasts-1 (RAEB-1) or RAEB-2. […] The dosage level of each patient is also provided, as well as the patient history of treatment with Azacytidine. The bone marrow blast reduction is measures as a function of FAB classification, dosage and prior treatment with hypomethylating agents.
FIG. 10: Transfusion independence. […] Transfusion independence (TI) defined by absence of RBC transfusion for at least 8 consecutive weeks. Erythroid Response (ER) defined by reduction of at least 4 RBC transfusions/8 weeks compared to pretreatment transfusion number in the previous 8 weeks (RBC Tx for Hb<9.0 g/dL).
Each bar represents one patient. 12 individual MDS patients all categorized as low to intermediate-1 risk (International Prognostic Scoring System—IPSS) and transfusion dependent are shown. […] The decrease in transfusion requirement is plotted for each patient. The absolute differences in red blood cell (RBC) units versus pre-treatment needs are provided.
A total of 16 patients are plotted against their percentage reduction in need for red blood cell transfusions after treatment versus their pre-treatment needs.
Safety and efficacy of a novel oral formulation of ON 01910.Na were determined in a dose escalation study in MDS patients refractory to ESA, lenalidomide and DNA Methyltransferase inhibitors.
ESA was allowed as concomitant medication. The drug dose was escalated based on a defined escalation dose scheme (70, 140, 280, 560, and 700 mg). The drug was administered orally twice a day for 14 days of a 21 day cycle.
Rigosertib (ON 01910.Na) was used in five clinical trials for myelodysplastic syndrome (MDS) in both intravenous and oral formulations.

[4] = iv, 800 mg, 800 mg IV (24 hr infusion)
[5] = po, 560 mg, 560 mg Oral (Fasting)
[6] = 8 RAEB-1/RAEB-2 patients, FIG. 4
[7] = individual patients achieving transfusion independence

## COc1cc(OC)c(/C=C/S(=O)(=O)Cc2ccc(OC)c(NCC(=O)[O-])c2)c(OC)c1.[Na+] [Rigosertib, sodium (E)-2-{2-methoxy-5-[(2′,4′,6′-trimethoxystyrylsulfonyl)methyl]phenylamino}acetate]
[1]; 560 mg oral, fed vs fasting
  decrease of AUC after a meal as compared to fasting conditions: 61%
  decrease of Cmax after a meal as compared to fasting conditions: 77%
[1]; [4]
  AUC: 52700 ± 19200 ng·h/mL
  Cmax: 3140 ± 1130 ng/mL
  Tmax: 2.91 ± 1.3 h
  half-life: 3.25 ± 0.97 h
[1]; [5]
  AUC: 6890 ± 3980 ng·h/mL
  Cmax: 2420 ± 1260 ng/mL
  Tmax: 1 ± 0.45 h
  bioavailability: 34.9 ± 17.6%
  half-life: 2.79 ± 1.23 h
[1]; po, 560 mg, 560 mg Oral (Fed)
  AUC: 2710 ± 1510 ng·h/mL
  Cmax: 560 ± 310 ng/mL
  Tmax: 2.82 ± 1.15 h
  bioavailability: 13.8 ± 6.04%
  half-life: 2.61 ± 0.93 h
[2]; DAPI DNA content
  effect on G2/M cell cycle transition: mitotic arrest with subsequent apoptosis
[2]; cyclin B1, p-histone H3(S28), p-Cdk1(Y15)
  drug concentration of maximal effects on cell cycle signaling molecules: 0.37 µM
[3]; 700 mg dose level, dysuria and shortness of breath
  patients with dose limiting toxicity (DLT) during first 3-week cycle: One
[3]; [6]
  patients responding (bone marrow blast reduction): 6 of 8
  patients with bone marrow complete response (BM CR): 2
[3]; 12 low to intermediate-1 risk transfusion dependent MDS patients, oral, 8 weeks, FIG. 13
  patients showing decrease in transfusion dependence based on RBC requirement (absolute differences): 3 of 12
[3]; 16 patients, FIG. 14
  patients showing decrease in transfusion dependence based on decrease in percentage of RBC requirement: 5 of 16
[3]; 70-700 mg orally twice a day, 14 days of a 21 day cycle
  tolerability of oral formulation: well tolerated
[3]; RBC units per 56 days of treatment, individual patients
  # Units/56 ds Trt: 8.0 and 10.5 (2×) and 3.2 and 3.1 and 0.3 (2×) and 4.4 and 11.6 (2×) and 7.1 and 2.0 and 4.3 and 2.9 and 4.9 and 6.4
[3]; RBC units vs pre-treatment, individual patients
  % Reduction: 100% and 74% and −68% and −49% and −87% and −45% and −88% and 44% and −41% and −50% and 5% and −29% and −52% and −18% and 7% and −3%
[3]; RBC units, individual patients, one table row per patient
  # Units during Trt: 2 (4×) and 17 and 10 and 16 (3×) and 13 and 4 (4×) and 21 and 8
[3]; bid, oral, 14 days of a 21 day cycle
  safe and efficacious dose: 560 mg
[3]; individual Low-Int-1 risk transfusion dependent MDS patients, 560 or 700 mg bid, one table row per patient
  TX response: No
[3]; [7]
  Duration Tx indep: 16 and 47+ (2×) and 8
  Onset Tx indep week: 10 and 7 and 6 and 3
[3]; single weekly escalating oral doses 70-700 mg, fasting, 3 patients
  Cmax as a function of dose: increased linearly
[3]; units/56 days on treatment vs units in 56 days pre-treatment, individual patients
  Red RBC Units: 4.0 and 4.5 and −6.8 and −2.9 and −3.7 and −3.6 and −5.7 and 3.6 and −4.9 and −2.0 and 0.5 and −1.7 and −3.1 and −1.1 and 0.4 and −0.4
